Test results from patent publication US20260258084A1, “New Peptides as Selective IL-23 Receptor Antagonists” (Sanofi, priority 2022, published 2026).
In brackets after ≈: the same amount, converted by molar mass. Read-outs that look alike come from different tables or passages of the source. Starred links: 1 amine or outer side, 2 acyl side, 3 side chain; linkers in the order of their positions; H or OH if unused. Positions of bridges follow the written chain, without caps; N, C: chain ends. Non-standard residues stand in square brackets, D forms with d. Residues, ends and D or L forms follow the SMILES beside them. *: point of attachment. X3 = CN(CCCCC(=O)N[C@@H](CS[*:2])C(=O)[*:1])[*:3]; 2Nal = N[C@@H](Cc1ccc2ccccc2c1)C(=O)O; AEF = NCCOc1ccc(C[C@H](N)C(=O)O)cc1; αMeL = CC(C)C[C@](C)(N)C(=O)O; Me2NCH2CH2 = CN(C)CC*; Aib = CC(C)(N)C(=O)O; Ava = NCCCCC(=O)O

Key:
[1] = test system: IL-23 induced STAT3 signaling in HEK-Blue™ IL-23 cells; test: IL-23 induced STAT3 signaling in HEK-Blue IL-23 cells (SEAP reporter); format: cell-based; details: human IL23 0.25 ng/ml, read-out: pSTAT3
Summary of the method: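 Secreted SEAP, read at OD 620-655 nm after 45 min QUANTI-Blue development, reports STAT3 activation. Beforehand, cells were exposed to peptide dilutions for 60 min at 37 °C and then to 0.25 ng/ml final human IL-23 overnight, at 10,000 cells/well.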

Pancreatin = test: Protease stability in simulated intestinal fluid (Pancreatin-SIF, FaSSIF); format: in vitro ADME; details: 1 μM peptide, 37° C.; for remaining at 1 h, 1 µM: 60 min, read-out: FaSSIF 60 (min), remaining percent of peptide; for remaining at 2 h, 1 µM: 120 min, read-out: FaSSIF 120 (min), remaining percent of peptide; for remaining at 4 h, 1 µM: 240 min, read-out: FaSSIF 240 (min), remaining percent of peptide
Summary of the method: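 LC-MS/MS peak areas at 0, 60, 120 and 240 min, normalised to time 0 as 100%, give percent remaining. Reactions used 1 μM final peptide at 37° C in pancreatin-SIF (1 mg pancreatin in 10 mL SIF concentrate) and were stopped with ethanol containing 0.1% HCOOH.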

[2] = Solubility testing of peptides at different pH; format: physicochemical; details: target concentration 1 mg/ml, 2 hours agitation
Summary of the method: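 Four buffers were used: 50 mM HCl pH 1.2 and 50 mM phosphate at pH 6.5, 7.4 and 9.0, each receiving dried-down compound at a 1 mg/mL target. After 2 h gentle shaking and 0.45 μm filtration, UV peak areas were compared with a DMSO standard curve of known concentration, allowing for extinction coefficients.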

Pepsin = test system: T1, Pepsin; test: Protease stability in simulated gastric fluid (Pepsin-SGF, FaSSGF); format: in vitro ADME; details: simulated gastric fluid with pepsin (Pepsin-SGF), 60 min, 1 μM peptide, 37° C., read-out: FaSSGF 60 (min), remaining percent of peptide
T1 construct: purchased Merck Millipore
Summary of the method: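 LCMS/MS peak areas, normalised to the time-0 sample as 100%, give percent remaining. Conditions: 37° C incubation of 1 μM final peptide in simulated gastric fluid with pepsin; ethanol/0.1% HCOOH quench at 0, 60, 120, 240 min.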

[3] = biological target: T2, human interleukin-23 receptor (recombinant human IL-23R-Fc chimera) (Homo sapiens, UniProt Q5VWK5); test: Human ELISA IL23/IL23R (assay for specific human IL23R antagonists); format: binding; details: Table 10; read-out: Human ELISA IL23/IL23R IC50
T2 construct: Fc (IgG Fc fusion)
Summary of the method: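 Competition format: peptide dilutions compete for IL23R-Fc chimera (0.1 μg/ml final, 60 min, room temperature) binding to immobilized human IL23 coated at […] overnight at 4 °C. Read-out is fluorogenic HRP signal from goat anti-hu-IgG1 detecting captured receptor.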

[4] = 50 mM HCl buffer, 50 mM HCl pH 1.2, read-out: Solubility Buffer pH 1.2
[5] = 50 mM phosphate buffer pH 6.5, read-out: Solubility Buffer pH 6.5
[6] = 50 mM phosphate buffer pH 7.4, read-out: Solubility Buffer pH 7.4
[7] = 50 mM phosphate buffer pH 9.0, read-out: Solubility Buffer pH 9.0

SMILES	IC50 [1]	remaining at 1 h, 1 µM (Pancreatin)	remaining at 2 h, 1 µM (Pancreatin)	remaining at 4 h, 1 µM (Pancreatin)	solubility at 2 h [2, 4]	solubility at 2 h [2, 5]	solubility at 2 h [2, 6]	solubility at 2 h [2, 7]	remaining at 1 h, 1 µM (Pepsin)	IC50 [3]
CC(C)C[C@@H](NC(=O)[C@H](CC(N)=O)NC(=O)[C@@H]1CCC(=O)NCCCCC(=O)N[C@H]2CSSC[C@H](NC(=O)[C@H](CCC(N)=O)NC(=O)[C@H](Cc3c[nH]c4ccccc34)NC(=O)[C@H]([C@@H](C)O)NC(=O)[C@H](CC(N)=O)NC2=O)C(=O)N[C@@H](Cc2ccc(OCCN(C)C)cc2)C(=O)N[C@@H](Cc2ccc3ccccc3c2)C(=O)N[C@@](C)(CC(C)C)C(=O)N1)C(N)=O [compound 10] ([Ava]CNTWQCY(Me2NCH2CH2)[2Nal][αMeL]EN[dL]-NH2; disulfide 2-7; lactam N-11)	25.8 nM	84%	81%	80%	< 10 µg/mL	70 µg/mL (≈ 40.1 µM)	10 µg/mL (≈ 5.72 µM)	< 10 µg/mL	77%	0.58 nM
CC(=O)N[C@H]1CCCCNC(=O)[C@@H]2CSSC[C@H](NC(=O)[C@H](CCC(N)=O)NC(=O)[C@H](Cc3c[nH]c4ccccc34)NC1=O)C(=O)N[C@@H](Cc1ccc(OCCN)cc1)C(=O)N[C@@H](Cc1ccc3ccccc3c1)C(=O)NC(C)(C)C(=O)N[C@H](C(=O)N[C@@H](CC(N)=O)C(=O)N[C@@H](CC(N)=O)C(N)=O)CCC(=O)N(C)CCCCC(=O)N2 [compound 12] (Ac-KWQC[AEF][2Nal][Aib]ENN-NH2; linker 1-4-8 via X3)	27.9 nM	74%	59%	41%	310 µg/mL (≈ 188 µM)	290 µg/mL (≈ 176 µM)	190 µg/mL (≈ 115 µM)	110 µg/mL (≈ 66.8 µM)	53%	0.59 nM
